Test results published in patent US20240000669A1, “NOVEL ENDODONTIC IRRIGANT” (INTER-MED, INC., priority 2020, published 2024).

Key:
[1] = Free available chlorine over time in 1:1 mixtures of chelating agent solutions with 3% NaOCl; format: physicochemical; details: for ability to maintain initial available chlorine, in words: after 1 hour, HEDP only above a pH of 11
[2] = Organic tissue dissolution capacity of antiseptic and chelating solutions (mass loss of tissue samples, FIG. 4); details: 30 mL aqueous solution, 30 minutes
Procedure: Since the smear layer produced upon mechanical debridement of infected dental hard tissues includes both organic and inorganic dentin components, an investigation was conducted to determine the organic tissue dissolution capacity of various antiseptics and chelating solutions that are commonly used in dentistry and medical applications. For this purpose, soft tissue samples were incubated in aqueous solutions containing the agents to be studied and the mass loss of the tissue samples was measured. The results are collected in FIG. 4, where the average mass loss is given as a percentage fraction of the initial weight. FIG. 4 illustrates the mass loss (Mean %) of tissue samples incubated in 30 mL of aqueous solutions of various agents after 30 minutes. […] It can be seen that high concentrations of NaOCl along with the addition of surfactants (anionic and nonionic) tended to increase the tissue dissolution rate.

[3] = Mass loss of tissue samples in sodium hypochlorite at different pH values (FIG. 6); details: 30 mL sodium hypochlorite, 30 minutes
From the text: The organic tissue dissolution capacity of NaOCl may be a function of free available chlorine in solution and a function of alkalinity. As pH increases to above […] the proportion of the hypochlorite anion (OCl^−) to hypochlorous acid (HOCl) dramatically increases. Below this pH, the concentration of hypochlorite anion decreases and the concentration of HOCl increases (see FIG. 5, which illustrates the chlorine speciation profile as a function of pH). […] However, as the concentration of the hypochlorite ions decreases, the tissue dissolution capacity also decreases (see FIG. 6, which illustrates mass loss of tissue samples incubated in 30 mL of sodium hypochlorite at different pH values after 30 minutes.). In certain aspects of the invention, the medicament comprises HOCl and OCl— and has a pH between 8 and 10.

[4] = Smear layer removal from instrumented root canals (smear layer score); details: score 1 = very little smear layer remaining, 5 = heavy smear layer present
From the text: (§1) A score of 1 indicates very little smear layer remaining, whereas a score of 5 indicates heavy smear layer present.

[5] = Preliminary investigation of smear layer removal (calcium chelation)
From the text: as §1

## CC(O)(P(=O)(O)O)P(=O)(O)O [HEDP, 1-hydroxyethylidene-1,1-diphosphonic acid]
[1]; 0 h, HEDP 15% at pH 11.1, 1:1 mix with 3% NaOCl
  Free Available Chlorine Remaining Post Mix (hours): 0: 100%
[1]; 1 h, HEDP 15% at pH 11.1, 1:1 mix with 3% NaOCl
  Free Available Chlorine Remaining Post Mix (hours): 1: 80%
[1]; 4 h, HEDP 15% at pH 11.1, 1:1 mix with 3% NaOCl
  Free Available Chlorine Remaining Post Mix (hours): 4: 40%
[1]; 24 h, HEDP 15% at pH 11.1, 1:1 mix with 3% NaOCl
  Free Available Chlorine Remaining Post Mix (hours): 24: 20%
[1]
  ability to maintain initial available chlorine, in words: able to maintain most of their initial available chlorine

## OCl [NaOCl, sodium hypochlorite]
[2]
  mass loss of tissue samples (FIG. 4), in words: largest mass loss
[3]
  capability of dissolving organic tissue as a function of pH (FIG. 6), in words: most capable of dissolving organic tissue at a pH above 8
[4]; apical root canal third
  residual smear layer score, Apical: 3.5
[4]; coronal root canal third
  residual smear layer score, Coronal: 3.2
[4]; middle root canal third
  residual smear layer score, Middle: 3.6

## O=P1([O-])OP(=O)([O-])OP(=O)([O-])OP(=O)([O-])OP(=O)([O-])OP(=O)([O-])O1.[Na+].[Na+].[Na+].[Na+].[Na+].[Na+] [SH, sodium hexametaphosphate]
[1]
  ability to maintain initial available chlorine, in words: able to maintain most of their initial available chlorine
[5]
  calcium chelator strength, in words: relatively weak calcium chelators

## O=P(O)(O)O[C@H]1[C@H](OP(=O)(O)O)[C@@H](OP(=O)(O)O)[C@H](OP(=O)(O)O)[C@@H](OP(=O)(O)O)[C@H]1OP(=O)(O)O [PA, phytic acid (C6H6[OPO(OH)2]6)]
[1]
  ability to maintain initial available chlorine, in words: able to maintain most of their initial available chlorine
[5]
  calcium chelator strength, in words: relatively weak calcium chelators

## O=C(O)CCC(CC(=O)O)(C(=O)O)P(=O)(O)O (stereo not drawn) [PBTC, 2-phosphonobutane-1,2,4,-tricarboxylic Acid]
[1]
  ability to maintain initial available chlorine, in words: able to maintain most of their initial available chlorine
